Key:
Human alphaherpesvirus 1 [1] = test: Antiviral activity against Human herpesvirus 1 at 50 uM by end point titration assay; type: functional
[2] = Cytotoxicity against Chlorocebus aethiops (African green monkey) Vero cells after 72 hr by MTT assay; type: cell-based; settings: chlorocebus sabaeus
Mayaro virus = test: Antiviral activity against Mayaro virus infected in Vero cells after 72 hr by plaque reduction assay; type: functional, organism-based
[3] = tested on: Vesicular stomatitis virus; test: Antiviral activity against Vesicular stomatitis virus infected Vero cells after 72 hr by plaque reduction assay; type: functional, organism-based
[4] = Selectivity index, ratio of CC50 for african green monkey Vero cells to EC50 for Mayaro virus; type: toxicity, cell-based; settings: read-out: Ratio CC50/EC50
[5] = Selectivity index, ratio of CC50 for african green monkey Vero cells to EC50 for Vesicular stomatitis virus; type: toxicity, cell-based; settings: read-out: Ratio CC50/EC50
[6] = Selectivity index, ratio of CC50 for african green monkey Vero cells to EC50 for Herpes simplex virus 1; type: toxicity, cell-based; settings: read-out: Ratio CC50/EC50
Human alphaherpesvirus 1 [7] = test: Antiviral activity against Human herpesvirus 1 infected in Vero cells after 72 hr by plaque reduction assay; type: functional, organism-based; settings: Human alphaherpesvirus 1, Vero
Human alphaherpesvirus 1 [8] = test: Antiviral activity against Human herpesvirus 1 at 10 uM by end point titration assay; type: functional

## CCOC(=O)c1cnc2c(cnn2-c2ccccc2)c1Nc1cccc(Br)c1
Human alphaherpesvirus 1 [1]
  inhibition at 50 µM: 70%

## CCOC(=O)c1cnc2c(cnn2-c2ccccc2)c1Nc1cccc(Cl)c1
Human alphaherpesvirus 1 [1]
  inhibition at 50 µM: 60%

## CCOC(=O)c1cnc2c(cnn2-c2ccccc2)c1Nc1ccc(C)cn1
Human alphaherpesvirus 1 [1]
  inhibition at 50 µM: 90%

## Cc1cccc(Nc2c(C(=O)O)cnc3c2cnn3-c2ccccc2)c1
Human alphaherpesvirus 1 [1]
  inhibition at 50 µM: 38.5%

## CCOC(=O)c1cnc2c(cnn2-c2ccccc2)c1Nc1cccc(OC)c1
Human alphaherpesvirus 1 [1]
  inhibition at 50 µM: 98%

## O=C(O)c1cnc2c(cnn2-c2ccccc2)c1Nc1cccc([N+](=O)[O-])c1
Human alphaherpesvirus 1 [1]
  inhibition at 50 µM: 20.6%

## O=C(O)c1cnc2c(cnn2-c2ccccc2)c1Nc1ccccc1
[2]
  CC50 at 72 h: 135 µM
Mayaro virus
  EC50: 4.8 µM
Human alphaherpesvirus 1 [1]
  inhibition at 50 µM: 0%
[3]
  EC50: 2.5 µM
[4]
  selectivity ratio: 28
[5]
  selectivity ratio: 54

## O=C(O)c1cnc2c(cnn2-c2ccccc2)c1Nc1cccc(Br)c1
[2]
  CC50 at 72 h: 600 µM
Human alphaherpesvirus 1 [1]
  inhibition at 50 µM: 84%
[6]
  selectivity ratio: 272
Human alphaherpesvirus 1 [7]
  EC50: 2.2 µM

## Cc1ccnc(Nc2c(C(=O)O)cnc3c2cnn3-c2ccccc2)c1
Human alphaherpesvirus 1 [1]
  inhibition at 50 µM: 75%

## O=C(O)c1cnc2c(cnn2-c2ccccc2)c1Nc1cccc(Cl)c1
[2]
  CC50 at 72 h: 37.4 µM
Mayaro virus
  EC50: 0.52 µM
Human alphaherpesvirus 1 [1]
  inhibition at 50 µM: 68%
[3]
  EC50: 1 µM
[4]
  selectivity ratio: 71
[5]
  selectivity ratio: 37

## COc1cccc(Nc2c(C(=O)O)cnc3c2cnn3-c2ccccc2)c1
Human alphaherpesvirus 1 [1]
  inhibition at 50 µM: 75.5%

## O=C(O)c1cnc2c(cnn2-c2ccccc2)c1Nc1cccc(F)c1
Human alphaherpesvirus 1 [1]
  inhibition at 50 µM: 68%

## Nc1nc2c(ncn2COCCO)c(=O)[nH]1 [ACYCLOVIR]
[2]
  CC50 at 72 h: 960 µM
[4]
  selectivity ratio: 880
[6]
  selectivity ratio: 880
Human alphaherpesvirus 1 [8]
  inhibition at 10 µM: 96%

## Cc1ccc(Nc2c(C(=O)O)cnc3c2cnn3-c2ccccc2)cc1
Human alphaherpesvirus 1 [1]
  inhibition at 50 µM: 58.4%

## O=C(O)c1cnc2c(cnn2-c2ccccc2)c1Nc1ccc(Cl)cc1
Human alphaherpesvirus 1 [1]
  inhibition at 50 µM: 68%

## CCOC(=O)c1cnc2c(cnn2-c2ccccc2)c1Nc1cccc([N+](=O)[O-])c1
[2]
  CC50 at 72 h: 1000 µM
Human alphaherpesvirus 1 [1]
  inhibition at 50 µM: 90%
[6]
  selectivity ratio: 141
Human alphaherpesvirus 1 [7]
  EC50: 6.8 µM

## O=C(O)c1cnc2c(cnn2-c2ccccc2)c1Nc1ccc(Br)cc1
Human alphaherpesvirus 1 [1]
  inhibition at 50 µM: 37%

## CCOC(=O)c1cnc2c(cnn2-c2ccccc2)c1Nc1ccc(Br)cc1
Human alphaherpesvirus 1 [1]
  inhibition at 50 µM: 75%

## Cc1ccc(Nc2c(C(=O)O)cnc3c2cnn3-c2ccccc2)nc1
Human alphaherpesvirus 1 [1]
  inhibition at 50 µM: 60%

## CCOC(=O)c1cnc2c(cnn2-c2ccccc2)c1Nc1ccc([N+](=O)[O-])cc1
Human alphaherpesvirus 1 [1]
  inhibition at 50 µM: 0%

## O=C(O)c1cnc2c(cnn2-c2ccccc2)c1Nc1ccc([N+](=O)[O-])cc1
Human alphaherpesvirus 1 [1]
  inhibition at 50 µM: 80%

## CCOC(=O)c1cnc2c(cnn2-c2ccccc2)c1Nc1ccc(OC)cc1
Human alphaherpesvirus 1 [1]
  inhibition at 50 µM: 75.5%

## CCOC(=O)c1cnc2c(cnn2-c2ccccc2)c1Nc1cc(C)ccn1
Human alphaherpesvirus 1 [1]
  inhibition at 50 µM: 60%

## CCOC(=O)c1cnc2c(cnn2-c2ccccc2)c1Nc1ccc(Cl)cc1
Human alphaherpesvirus 1 [1]
  inhibition at 50 µM: 92%

## CCOC(=O)c1cnc2c(cnn2-c2ccccc2)c1Nc1cccc(C)c1
Human alphaherpesvirus 1 [1]
  inhibition at 50 µM: 90%

## COc1ccc(Nc2c(C(=O)O)cnc3c2cnn3-c2ccccc2)cc1
Human alphaherpesvirus 1 [1]
  inhibition at 50 µM: 80.6%

## Cc1cccc(Nc2c(C(=O)O)cnc3c2cnn3-c2ccccc2)n1
Human alphaherpesvirus 1 [1]
  inhibition at 50 µM: 21%

## CCOC(=O)c1cnc2c(cnn2-c2ccccc2)c1Nc1ccc(C)cc1
Human alphaherpesvirus 1 [1]
  inhibition at 50 µM: 69.2%

## CCOC(=O)c1cnc2c(cnn2-c2ccccc2)c1Nc1ccccc1
Human alphaherpesvirus 1 [1]
  inhibition at 50 µM: 90%

## CCOC(=O)c1cnc2c(cnn2-c2ccccc2)c1Nc1cccc(C)n1
Human alphaherpesvirus 1 [1]
  inhibition at 50 µM: 90%

## CCOC(=O)c1cnc2c(cnn2-c2ccccc2)c1Nc1cccc(F)c1
Human alphaherpesvirus 1 [1]
  inhibition at 50 µM: 0%
